Experimental data as given in the METLIN SMRT retention time set (Domingo-Almenara et al. 2019).

test: gradient 5% acetonitrile 3 min, to 50% in 2 min, to 85% in 15 min, held 3 min, 100 µL/min; settings: column: Zorbax Extend-C18 2.1 x 50 mm; eluents: water / acetonitrile, 0.1% formic acid
Procedure, shortened: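 The mobile phases were water and acetonitrile, each with 0.1% formic acid, pumped at 100 μL/min through a Zorbax Extend-C18 column (2.1 × 50 mm, 1.8 μm). Pure standards were injected as mixtures of ~100 molecules and detected by a quadrupole time-of-flight mass spectrometer in positive and negative ionization mode. Retention time came from computationally picked adduct peaks, each inspected by hand.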

Going from CCC1CCCCN1C(=O)Cc1c(C)nc2nc(-c3ccc(C(C)(C)C)cc3)nn2c1C (centres undefined) to O=C(C1CCCCC1)N1CCc2nc(-c3ccc(Cl)cc3)ncc2C1, the RP-LC retention time rises from 1160 s to 1180 s.

Going from O=C(Nc1ccc2ccccc2c1)c1cccc(F)c1 to CCOC(=O)c1nc(Nc2ccc(C(=O)OC(C)C)cc2)c2ccccc2n1, the RP-LC retention time falls from 1060 s to 989 s.

Going from O=C(Nc1nnc(-c2cc(Cl)sc2Cl)o1)c1cccc(C(F)(F)F)c1 to CCOc1ccccc1NC(=O)NCCn1c(C(F)(F)F)nc2cccnc21, the RP-LC retention time falls from 1010 s to 799 s.

Compared with Cc1ccc(Nc2c(-c3ccc(N(C)C)cc3)nc3c(C)cccn23)cc1, Cc1c(Cl)cccc1Nc1c(-c2cccc(Cl)c2)nc2cnccn12 is higher in RP-LC retention time: 805 s for the first, 1140 s for the second.

Compared with CCN(CC)C(=O)c1ccc(-c2nc3cc(NS(=O)(=O)c4cc(C)ccc4C)ccc3n2C)cc1, CCOc1ccc(OCC)c(S(=O)(=O)Nc2ccc(-c3cn4ccc(C)nc4n3)cc2)c1 is lower in RP-LC retention time: 739 s for the first, 697 s for the second.

First: Cc1noc(-c2nn(C)c3c2CN(C(=O)Nc2ccc(Cl)cc2)CC3)n1
Second: Cc1nc(-c2ccc(N3CCN(C(=O)c4ccc(Cl)cc4)CC3)nc2)sc1C
The RP-LC retention time of the first is lower: 790 s for the first, 946 s for the second.

Going from COc1ccc2c(C)c(CC(=O)N3CCC(C(N)=O)CC3)c(=O)oc2c1C to CCOC(=O)C1CCN(C(=O)CCCn2c(=O)c3cccn3c3ccc(Br)cc32)CC1, the RP-LC retention time rises from 661 s to 974 s.

First: CCn1c(CN(C)C(=O)Nc2ccc3c(c2)OCCO3)nc2cc(C(=O)N(C)C)ccc21
Second: CCN1C(=O)COc2ccc(-c3noc(-c4cccc(OC)c4)n3)cc21
The RP-LC retention time of the first is lower: 611 s for the first, 1130 s for the second.

Going from O=C(CN1CCN(c2ccccc2F)C1=O)Nc1ccc(OC(F)(F)F)cc1 to COc1ccc(NC(=O)CN2CCN(Cc3ccc(F)cc3)C(=O)C2=O)cc1, the RP-LC retention time falls from 855 s to 697 s.

First: O=C(O)c1ccc(Nc2nc(-c3ccc(Br)cc3)cs2)cc1
Second: COc1ccc(-c2csc(NC(=O)Cn3c(=O)oc4cc(Br)ccc43)n2)cc1
The RP-LC retention time of the first is lower: 989 s for the first, 1070 s for the second.

Going from Cn1cc(C(=O)N2CCN(c3ccccn3)CC2)c2cccnc21 to O=C(Cn1ncc2c(N3CCN(c4ccccn4)CC3)ncnc21)Nc1ccc(F)cc1Cl, the RP-LC retention time rises from 566 s to 650 s.

First: CC1CCc2nc3ncn(CC(=O)Nc4cccc(C#N)c4)c(=O)c3cc2C1 (centres undefined)
Second: CN(c1nccn2c(=O)n(CC(=O)Nc3ccc(F)cc3)nc12)C1CCCCC1
The RP-LC retention time of the first is lower: 738 s for the first, 749 s for the second.

Compared with Cc1nc(-c2noc(-c3ccncc3)n2)cn1CC(=O)N1CCN(c2ccccc2)CC1, O=C(c1ccc(-c2cccs2)nc1)N1CCN(c2ccccc2)CC1 is higher in RP-LC retention time: 673 s for the first, 935 s for the second.

First: CCOc1ccc(-c2nc(C3CC(=O)N(c4ccc(OC)cc4)C3)no2)cc1 (centres undefined)
Second: CCn1nccc1-c1cccc(-c2noc(C3(c4ccc(OC)cc4)CC3)n2)c1
The RP-LC retention time of the first is lower: 1010 s for the first, 1240 s for the second.

Going from CCCCCN(CC(=O)N1CCNCC1)C(=O)c1cccc(Br)c1 to CCN(CC)CCNC(=O)C1CCCN(c2ncc(-c3cccc(F)c3)cn2)C1 (centres undefined), the RP-LC retention time rises from 664 s to 688 s.

Going from O=C(O)c1cccc(-c2ccc(N3CCCCCC3)nc2)c1 to O=C(NCc1ccnc(N2CCSCC2)c1)Nc1ccc(Cl)cc1, the RP-LC retention time rises from 627 s to 649 s.

Going from CSc1ccccc1NC(=O)C(=O)NCC(C)(O)c1ccco1 (centres undefined) to CC(C(=O)Nc1ccc(F)cc1F)C1CCN(C(=O)Nc2ccccc2)CC1 (centres undefined), the RP-LC retention time falls from 995 s to 834 s.

Going from COC(=O)c1ccc(NC(=O)CSc2nnc(CN3CCOCC3)o2)cc1 to COc1ccc(-c2nc(-c3ccc4c(c3)ncn4CCN3CCOCC3)no2)c(C)c1, the RP-LC retention time rises from 576 s to 666 s.

Going from O=C(NCc1ccco1)c1ccc2c(c1)CC(=O)N2Cc1ccc(F)cc1 to Cc1ccc(CNC(=O)Cc2csc3nc(-c4cccc(Br)c4)cn23)cc1, the RP-LC retention time rises from 794 s to 963 s.

Going from CCSc1nc2ccc(NS(=O)(=O)Cc3ccc(Cl)cc3)cc2s1 to O=C(Cn1cnc(-c2ccc(Cl)cc2)cc1=O)NCc1cccnc1, the RP-LC retention time falls from 1080 s to 568 s.

Compared with Cc1ccn2cc(C(=O)N3CCN(c4ccc(Cl)cc4)CC3)nc2c1, COc1ccc(N2CCN(c3cc(SCC(=O)Nc4cc(OC)ccc4OC)ncn3)CC2)cc1 is higher in RP-LC retention time: 715 s for the first, 1030 s for the second.

First: O=C(O)c1ccccc1-n1c2ccccc2c2ccccc21
Second: NC(=O)Cn1c(Cc2ccccc2)nc2ccccc21
The RP-LC retention time of the first is higher: 1050 s for the first, 522 s for the second.

Going from Cc1c(C(=O)N2CCN(C)CC2)cnn1-c1ccc(-c2nc(C3CC3)no2)cn1 to CCn1nccc1C(=O)N1CCCN(C2=NS(=O)(=O)C(c3ccc(F)cc3)=C2C)CC1, the RP-LC retention time rises from 635 s to 737 s.

Going from CCCn1c(=O)sc2cc(S(=O)(=O)N3CCC(C(=O)NCc4cccs4)CC3)ccc21 to CCc1ccccc1NC(=O)C1CCN(S(=O)(=O)c2cc(C(=O)N3CCCC3)cs2)CC1, the RP-LC retention time falls from 880 s to 799 s.

Going from CCOc1ncccc1CNC(=O)C1CCC1 to O=C(NCc1ccc2c(c1)OCO2)C1CCCN(c2nnc3ccccn23)C1 (centres undefined), the RP-LC retention time falls from 696 s to 573 s.

Compared with CN(C)C(=O)c1ccc2c(c1)N(CC(=O)NCCN1CCCCCC1)C(=O)C1CCCCN21 (centres undefined), O=C(Cc1ccsc1)NCCC1CCN(C(=O)Nc2cc(F)cc(F)c2)CC1 is higher in RP-LC retention time: 615 s for the first, 853 s for the second.

First: O=C(Cn1cnc2ccccc2c1=O)N1CCCC(c2nnc(-c3ccccc3F)s2)C1 (centres undefined)
Second: CC1CCN(C(=O)C2CCN(c3nc4ccc(-c5ccccc5F)nc4s3)CC2)CC1
The RP-LC retention time of the first is lower: 730 s for the first, 1170 s for the second.

Compared with CC(C)NC(=O)c1c2c(nc3ccccc13)CCC2, CCOC(=O)c1nc(N2CCc3ccccc32)c2ccccc2n1 is higher in RP-LC retention time: 593 s for the first, 935 s for the second.

Compared with O=C(CSc1ccc(-c2ccco2)nn1)N1CCCCC1, CC(C)n1c(N2CCN(C(=O)CSc3ccccc3)CC2)cc(=O)n(C(C)C)c1=O is higher in RP-LC retention time: 690 s for the first, 902 s for the second.

Going from CCCS(=O)(=O)N1CCC(Cc2nc(-c3cccnc3)n[nH]2)C1 (centres undefined) to Cc1nn(C)c(=O)c2cc(S(=O)(=O)N3CCC(Cc4ccccc4)CC3)cn12, the RP-LC retention time rises from 583 s to 943 s.

First: O=C([C@@H]1C[C@H](F)CN1S(=O)(=O)c1cccc(Cl)c1)N1CCc2ccccc2C1
Second: O=C(Cc1ccc(Cl)cc1)N1CCC2(C1)C(=O)Nc1ccccc12 (centres undefined)
The RP-LC retention time of the first is higher: 927 s for the first, 758 s for the second.

Compared with CCc1noc(NC(C)=O)c1-c1ccc(C)c(S(=O)(=O)N2CCN(C(=O)c3ccco3)CC2)c1, O=C1NCCCn2cc(S(=O)(=O)N3CCN(c4ccc(F)cc4)CC3)cc21 is lower in RP-LC retention time: 758 s for the first, 730 s for the second.

Compared with Cc1noc([C@@H]2CN(Cc3cc(F)ccc3F)C[C@H]2CO)n1, COCCN1C(=O)[C@H]2CN(Cc3ccc(OC)cc3OC)C[C@H]2C1=O is higher in RP-LC retention time: 576 s for the first, 594 s for the second.

First: Cc1ccsc1C(=O)N1CCC2(CC1)CC(N1CCOCC1)CCO2 (centres undefined)
Second: Cc1noc([C@H]2CCN(C3CCSCC3)C[C@H]2NC(=O)C2CC2)n1
The RP-LC retention time of the first is higher: 577 s for the first, 576 s for the second.

First: OCc1ncc(-c2ccccc2)s1
Second: O=C(Cc1cccs1)N1CCc2[nH]cnc2C1c1ccccc1 (centres undefined)
The RP-LC retention time of the first is higher: 762 s for the first, 612 s for the second.

Compared with COCCC(=O)N1CCC(Oc2nccnc2N2CCc3ccccc32)C1 (centres undefined), Cc1cccc(Sc2nccnc2N2CCCC(C(=O)N3CCN(c4ccccc4F)CC3)C2)c1 (centres undefined) is higher in RP-LC retention time: 797 s for the first, 1280 s for the second.

Compared with Fc1cc(F)cc(-c2nnc(Cc3nc(-c4ccc5c(c4)OCO5)no3)o2)c1, CCC(C)n1c(=O)c2ccccc2n(Cc2nc(-c3ccccc3)no2)c1=O (centres undefined) is higher in RP-LC retention time: 987 s for the first, 1190 s for the second.

First: CN(C)c1ccc(C(=O)NC2CCN(c3ccccc3)C2=O)cc1 (centres undefined)
Second: COc1ccc(C(=O)Oc2cc(C)nn2-c2nc3ccccc3[nH]2)cc1
The RP-LC retention time of the first is higher: 713 s for the first, 643 s for the second.

Compared with CCOc1ccccc1-n1nnc(-c2nn3c(Cc4ccccc4)nnc3s2)c1C, CCOCCCNC(=O)c1nc(Nc2ccccc2)c2ccccc2n1 is higher in RP-LC retention time: 857 s for the first, 1130 s for the second.

First: Cc1nc(Cn2cccc2C(=O)Nc2cccc(C)c2C)no1
Second: Cc1ccc(Cl)cc1NC(=O)Cc1c(C)nn(-c2nc(-c3ccc(F)cc3)cs2)c1C
The RP-LC retention time of the first is lower: 821 s for the first, 1250 s for the second.

Going from COC(=O)c1nc(NC(=O)Cn2nc3c(cc2=O)CCCC3)sc1C to Cc1nn2c(CNC(=O)c3ccccc3Br)c(C)nc2s1, the RP-LC retention time falls from 710 s to 610 s.

Going from CC(Cc1ccco1)NC(=O)C1CCN(Cc2cc3ccccc3n2Cc2cccc(Cl)c2)CC1 (centres undefined) to COc1ccc(CN2C=C(C(=O)OCc3nc(-c4ccccc4F)no3)C(C)=NS2(=O)=O)cc1, the RP-LC retention time rises from 821 s to 1060 s.

First: Cc1noc2ncn(CC(=O)Nc3c(F)c(F)cc(F)c3F)c(=O)c12
Second: CCNc1cc(C)nc(N2CCN(C(=O)CC(C)C)CC2)n1
The RP-LC retention time of the first is higher: 759 s for the first, 613 s for the second.

Going from Cn1cc(-c2ccc3nnc(Sc4ccc5ncccc5c4)n3n2)cn1 to O=c1[nH]c2ccc(NCc3ccccc3Cl)cc2[nH]1, the RP-LC retention time falls from 661 s to 641 s.

Compound C[C@@H]1C(=O)O[C@H]2C[C@@]34[C@H]5C[C@@H](C(C)(C)C)[C@]36[C@@H](OC(=O)[C@@H]6O)O[C@@]4(C(=O)O5)[C@]21O has an RP-LC retention time of 715 s.
